Experimental data: BigSolDB 2.1
Values joined by “and” are separate entries in the source; they are usually repeats but may differ in a detail not shown here. Equal values may be shown once.

CC(C)(C)C(O)/C(=C\c1ccc(Cl)cc1)n1cncn1 (stereo not drawn)
solubility (mole fraction)
Conditions | 278.15 K | 283.15 K | 288.15 K | 293.15 K | 298.15 K | 303.15 K | 308.15 K | 313.15 K | 318.15 K | 323.15 K
in ethyl acetate | 0.0106 | 0.0112 | 0.016 | 0.0167 | 0.0187 | 0.0201 | 0.0253 | 0.028 | 0.035 | 0.0536
in ethylene glycol | 0.000907 | 0.000983 | 0.00103 | 0.00118 | 0.00128 | 0.00166 | 0.0018 | 0.00202 | 0.00248 | 0.0025
in isobutanol | 0.0157 | 0.0177 | 0.0185 | 0.0197 | 0.0225 | 0.0257 | 0.0261 | 0.0365 | 0.0425 | 0.0566
in isobutyl acetate | 0.00727 | 0.0102 | 0.0116 | 0.0136 | 0.0159 | 0.0199 | 0.0219 | 0.0263 | 0.0335 | 0.0423
in isopropanol | 0.0112 | 0.0122 | 0.0141 | 0.0157 | 0.0189 | 0.0248 | 0.0268 | 0.0326 | 0.038 | 0.047
in methyl acetate | 0.0084 | 0.00938 | 0.0116 | 0.0137 | 0.0151 | 0.0184 | 0.0214 | 0.0236 | 0.0318 | 0.0383
in n-butanol | 0.015 | 0.0171 | 0.0196 | 0.0221 | 0.0249 | 0.0309 | 0.0355 | 0.0406 | 0.0475 | 0.0623
in n-butyl acetate | 0.0118 | 0.0131 | 0.0153 | 0.0182 | 0.0204 | 0.0247 | 0.0291 | 0.0332 | 0.0364 | 0.0527
in n-octanol | 0.0159 | 0.0177 | 0.02 | 0.0225 | 0.0238 | 0.0255 | 0.0287 | 0.0369 | 0.044 | 0.0511
in n-propanol | 0.0143 | 0.0163 | 0.0196 | 0.0218 | 0.0231 | 0.0263 | 0.0273 | 0.0332 | 0.0441 | 0.0497
in n-propyl acetate | 0.0114 | 0.0123 | 0.0147 | 0.0169 | 0.0269 | 0.0277 | 0.0362 | 0.037 | 0.052 | 0.0556
in propylene glycol | 0.00332 | 0.00359 | 0.00423 | 0.00483 | 0.00737 | 0.00749 | 0.00874 | 0.0101 | 0.0139 | 0.0174
in water | 2.2e-06 and 3.2e-06 | 2.3e-06 and 3.6e-06 | 2.4e-06 | 2.6e-06 | 2.7e-06 | 2.8e-06 | 3e-06 | – | – | 4.2e-06
